According to US20220053762A1, “HERBICIDAL COMPOSITIONS” (Bayer Aktiengesellschaft, priority 2018, published 2022):

Tested on: harmful plant species
Assay: Specific trial examples: binary compositions applied by the post-emergence method, synergistic effect according to Colby (Tables 3.1-3.2)
Format: in vivo
Procedure: When the observed efficacies already exceed the formal sum total of the values of the tests with individual applications, they also exceed the expected value according to Colby, which is calculated using the formula below and is likewise regarded as an indication of synergism (cf. S. R. Colby; in Weeds 15 (1967) p. 20 to 22):
Seeds or rhizome pieces of mono- and dicotyledonous weeds are placed in sandy loam in pots, covered with soil and grown in a greenhouse under good growth conditions (temperature, air humidity, water supply). Three weeks after sowing, the test plants are treated at the three-leaf stage with the compositions according to the invention. The compositions according to the invention formulated as spray powders or as emulsion concentrates are sprayed onto the green plant parts in various dosages with an application rate of 300 to 800 l/ha of water (equivalent).
The sum total of the effects of the individual applications is reported under E^A; Expected values according to Colby are each reported under E^C.
The rating period is reported in days after application (DAT).

Structure (SMILES): O=C(O)CNCP(=O)(O)O [(B7.5) Glyphosate]
- Herbicidal action 28 DAT against Digitaria sanguinalis (15 g a.i./ha): 10%
- Herbicidal action 14 DAT against Alopecurus myosuroides (50 g a.i./ha): 30%
- Herbicidal action 14 DAT against Centaurea cyanus (50 g a.i./ha): 50%
- Herbicidal action 14 DAT against Lamium purpureum L. (50 g a.i./ha): 50%
- Herbicidal action 14 DAT against Lolium rigidum (50 g a.i./ha): 10%
- Herbicidal action 14 DAT against Lolium rigidum (resistant biotype) (50 g a.i./ha): 10%
- Herbicidal action 14 DAT against Matricaria inodora (50 g a.i./ha): 40%
- Herbicidal action 14 DAT against Poa annua L. (50 g a.i./ha): 20%
- Herbicidal action 14 DAT against Viola tricolor (50 g a.i./ha): 50%
- Herbicidal action 28 DAT against Alopecurus myosuroides (50 g a.i./ha): 20%
- Herbicidal action 28 DAT against Alopecurus myosuroides (sensitive biotype) (50 g a.i./ha): 0%
- Herbicidal action 28 DAT against Amaranthus palmeri (res.) (50 g a.i./ha): 10%
- Herbicidal action 28 DAT against Brachiaria platyphylla (50 g a.i./ha): 80%
- Herbicidal action 28 DAT against Bromus sterilis (50 g a.i./ha): 0%
- Herbicidal action 28 DAT against Centaurea cyanus (50 g a.i./ha): 30%
- Herbicidal action 28 DAT against Digitaria sanguinalis (50 g a.i./ha): 65%
- Herbicidal action 28 DAT against Echinochloa crus-galli (50 g a.i./ha): 20%
- Herbicidal action 28 DAT against Eleusine indica (50 g a.i./ha): 40%
- Herbicidal action 28 DAT against Euphorbia heterophylla (50 g a.i./ha): 10%
- Herbicidal action 28 DAT against Galium aparine (50 g a.i./ha): 0%
- Herbicidal action 28 DAT against Hordeum murinum (50 g a.i./ha): 10%
- Herbicidal action 28 DAT against Ipomoea purpurea (50 g a.i./ha): 15%
- Herbicidal action 28 DAT against Kochia scoparia (50 g a.i./ha): 20%
- Herbicidal action 28 DAT against Lamium purpureum L. (50 g a.i./ha): 30%
- Herbicidal action 28 DAT against Matricaria inodora (50 g a.i./ha): 20%
- Herbicidal action 28 DAT against Pharbitis purpurea (50 g a.i./ha): 40%
- Herbicidal action 28 DAT against Polygonum convulvulus (50 g a.i./ha): 0%
- Herbicidal action 28 DAT against Raphanus raphanistrum (50 g a.i./ha): 0%
- Herbicidal action 28 DAT against Sorghum halepense (50 g a.i./ha): 30%
- Herbicidal action 14 DAT against Alopecurus myosuroides (150 g a.i./ha): 60%
- Herbicidal action 14 DAT against Bromus sterilis (150 g a.i./ha): 50%
- Herbicidal action 14 DAT against Lamium purpureum L. (150 g a.i./ha): 60%
- Herbicidal action 14 DAT against Lolium rigidum (resistant biotype) (150 g a.i./ha): 30%
- Herbicidal action 14 DAT against Matricaria inodora (150 g a.i./ha): 88%
- Herbicidal action 28 DAT against Alopecurus myosuroides (150 g a.i./ha): 30%
- Herbicidal action 28 DAT against Alopecurus myosuroides (resistant biotype) (150 g a.i./ha): 0%
- Herbicidal action 28 DAT against Alopecurus myosuroides (sensitive biotype) (150 g a.i./ha): 20%
- Herbicidal action 28 DAT against Amaranthus palmeri (res.) (150 g a.i./ha): 20%
- Herbicidal action 28 DAT against Avena fatua (150 g a.i./ha): 20%
- Herbicidal action 28 DAT against Bromus sterilis (150 g a.i./ha): 20%
- Herbicidal action 28 DAT against Centaurea cyanus (150 g a.i./ha): 70%
- Herbicidal action 28 DAT against Eleusine indica (150 g a.i./ha): 80%
- Herbicidal action 28 DAT against Euphorbia heterophylla (150 g a.i./ha): 35%
- Herbicidal action 28 DAT against Ipomoea purpurea (150 g a.i./ha): 50%
- Herbicidal action 28 DAT against Lamium purpureum (150 g a.i./ha): 60%
- Herbicidal action 28 DAT against Lamium purpureum L. (150 g a.i./ha): 50%
- Herbicidal action 28 DAT against Lolium rigidum (sensitive biotype) (150 g a.i./ha): 0%
- Herbicidal action 28 DAT against Matricaria inodora (150 g a.i./ha): 75%
- Herbicidal action 28 DAT against Polygonum convolvulus (150 g a.i./ha): 0%
- Herbicidal action 28 DAT against Polygonum convulvulus (150 g a.i./ha): 10%
- Herbicidal action 28 DAT against Veronica hederifolia (150 g a.i./ha): 85%
- Herbicidal action 28 DAT against Viola tricolor (150 g a.i./ha): 20%
- Herbicidal action 14 DAT against Lolium rigidum (resistant biotype) (450 g a.i./ha): 40%
- Herbicidal action 14 DAT against Viola tricolor (450 g a.i./ha): 60%
- Herbicidal action 28 DAT against Amaranthus palmeri (res.) (450 g a.i./ha): 35%
- Herbicidal action 28 DAT against Bromus sterilis (450 g a.i./ha): 60%
- Herbicidal action 28 DAT against Euphorbia heterophylla (450 g a.i./ha): 70%
- Herbicidal action 28 DAT against Galium aparine (450 g a.i./ha): 50%
- Herbicidal action 28 DAT against Ipomoea purpurea (450 g a.i./ha): 65%
- Herbicidal action 28 DAT against Lamium purpureum (450 g a.i./ha): 80%
- Herbicidal action 28 DAT against Lamium purpureum L. (450 g a.i./ha): 80%
- Herbicidal action 28 DAT against Lolium rigidum (450 g a.i./ha): 40%
- Herbicidal action 28 DAT against Lolium rigidum (sensitive biotype) (450 g a.i./ha): 50%
- Herbicidal action 28 DAT against Matricaria inodora (450 g a.i./ha): 80%
- Herbicidal action 28 DAT against Phalaris minor (450 g a.i./ha): 60%
- Herbicidal action 28 DAT against Polygonum convolvulus (450 g a.i./ha): 0%
- Herbicidal action 28 DAT against Polygonum convulvulus (450 g a.i./ha): 40%
- Herbicidal action 28 DAT against Raphanus raphanistrum (450 g a.i./ha): 30%
- Herbicidal action 28 DAT against Stellaria media (450 g a.i./ha): 85%
- Herbicidal action 28 DAT against Veronica hederifolia (450 g a.i./ha): 85%
- Herbicidal action 28 DAT [%] against Digitaria sanguinalis (post-emergence, single active compound (Glyphosate series), g a.i./ha: r765 50, r767 15): 45%
- Herbicidal action 28 DAT [%] against Sorghum halepense (post-emergence, single active compound (Glyphosate series), g a.i./ha: r775 50, r777 15, r778 1.67): 30%
- Herbicidal action 28 DAT [%] against Setaria viridis (post-emergence, single active compound (Glyphosate series), g a.i./ha: r786 450, r788 1.67): 95%
- Herbicidal action 28 DAT [%] against Abutilon theophrasti (post-emergence, single active compound (Glyphosate series), g a.i./ha: r796 450, r798 5): 85%
